Reference: ChEMBL document CHEMBL1158728, “Makaluvic acids from the South African latrunculid sponge Strongylodesma aliwaliensis” (J Nat Prod, 2005)

Experiment: Cytotoxicity against human WHCO1 cells after 48 hrs by MTT assay
Assay type: functional, cell-based
Conditions: WHCO1, 48 h

SMILES	IC50 [µM]
O=C1C=C2NCCc3cn([C@@H]4O[C@H](CO)[C@@H](O)[C@H]4O)c(c32)C1=O	38
O=C(O)c1[nH]cc2c1C(=O)NCC2 [MAKALUVIC ACID C]	> 150
NC1=CC2=NCCc3cn([C@@H]4O[C@H](CO)[C@@H](O)[C@H]4O)c(c32)C1=O	1.6
O=C1C=C2NCCc3c[nH]c(c32)C1=O [DAMIRONE C]	56
O=C1C(N/C=C/c2ccc(O)cc2)=CC2=NCCc3c[nH]c1c32 [MAKALUVAMINE M]	0.7
O=C1NCCc2cn([C@@H]3O[C@H](CO)[C@@H](O)[C@H]3O)c(C(=O)O)c21	61
